Assays:
Assay in all cases: radiometric filter-binding kinase assay, Kinase HotSpot
Details in all cases: compound 0.5 µM; ATP 10 µM
ADRBK1 (human) = ADRBK1 (human) (UniProt P25098)
AKT1 (human) = AKT1 (human) (UniProt P31749)
CDC42BPA (human) = CDC42BPA (human) (UniProt Q5VT25)
CDK2 CCNE1 (human) = CDK2 CCNE1 (human) (UniProt P24941+P24864)
CDK3 CCNE1 (human) = CDK3 CCNE1 (human) (UniProt Q00526+P24864)
CDK7 CCNH MNAT1 (human) = CDK7 CCNH MNAT1 (human) (UniProt P50613+P51948+P51946)
CHEK1 (human) = CHEK1 (human) (UniProt O14757)
CSNK1G2 (human) = CSNK1G2 (human) (UniProt P78368)
EPHA2 (human) = EPHA2 (human) (UniProt P29317)
EPHA4 (human) = EPHA4 (human) (UniProt P54764)
EPHA8 (human) = EPHA8 (human) (UniProt P29322)
FGFR1 (human) = FGFR1 (human) (UniProt P11362)
FYN (human) = FYN (human) (UniProt P06241)
GSK3A (human) = GSK3A (human) (UniProt P49840)
HIPK1 (human) = HIPK1 (human) (UniProt Q86Z02)
HIPK2 (human) = HIPK2 (human) (UniProt Q9H2X6)
ITK (human) = ITK (human) (UniProt Q08881)
LTK (human) = LTK (human) (UniProt P29376)
MAP2K1 (human) = MAP2K1 (human) (UniProt Q02750)
MAP4K4 (human) = MAP4K4 (human) (UniProt O95819)
MST4 (human) = MST4 (human) (UniProt Q9P289)
MYLK (human) = MYLK (human) (UniProt Q15746)
NUAK2 (human) = NUAK2 (human) (UniProt Q9H093)
PAK7 (human) = PAK7 (human) (UniProt Q9P286)
PKN2 (human) = PKN2 (human) (UniProt Q16513)
PRKACA (human) = PRKACA (human) (UniProt P17612)
PRKCD (human) = PRKCD (human) (UniProt Q05655)
PRKD1 (human) = PRKD1 (human) (UniProt Q15139)
PRKD2 (human) = PRKD2 (human) (UniProt Q9BZL6)
PRKD3 (human) = PRKD3 (human) (UniProt O94806)
PTK6 (human) = PTK6 (human) (UniProt Q13882)
RIPK2 (human) = RIPK2 (human) (UniProt O43353)
RPS6KB1 (human) = RPS6KB1 (human) (UniProt P23443)
SGK3 (human) = SGK3 (human) (UniProt Q96BR1)
STK10 (human) = STK10 (human) (UniProt O94804)
STK11 (human) = STK11 (human) (UniProt Q15831)
STK16 (human) = STK16 (human) (UniProt O75716)
STK17A (human) = STK17A (human) (UniProt Q9UEE5)
STK25 (human) = STK25 (human) (UniProt O00506)
TAOK2 (human) = TAOK2 (human) (UniProt Q9UL54)
TAOK3 (human) = TAOK3 (human) (UniProt Q9H2K8)
YES1 (human) = YES1 (human) (UniProt P07947)

Sequence of MYLK (human) (Q15746 whole entry, looked up): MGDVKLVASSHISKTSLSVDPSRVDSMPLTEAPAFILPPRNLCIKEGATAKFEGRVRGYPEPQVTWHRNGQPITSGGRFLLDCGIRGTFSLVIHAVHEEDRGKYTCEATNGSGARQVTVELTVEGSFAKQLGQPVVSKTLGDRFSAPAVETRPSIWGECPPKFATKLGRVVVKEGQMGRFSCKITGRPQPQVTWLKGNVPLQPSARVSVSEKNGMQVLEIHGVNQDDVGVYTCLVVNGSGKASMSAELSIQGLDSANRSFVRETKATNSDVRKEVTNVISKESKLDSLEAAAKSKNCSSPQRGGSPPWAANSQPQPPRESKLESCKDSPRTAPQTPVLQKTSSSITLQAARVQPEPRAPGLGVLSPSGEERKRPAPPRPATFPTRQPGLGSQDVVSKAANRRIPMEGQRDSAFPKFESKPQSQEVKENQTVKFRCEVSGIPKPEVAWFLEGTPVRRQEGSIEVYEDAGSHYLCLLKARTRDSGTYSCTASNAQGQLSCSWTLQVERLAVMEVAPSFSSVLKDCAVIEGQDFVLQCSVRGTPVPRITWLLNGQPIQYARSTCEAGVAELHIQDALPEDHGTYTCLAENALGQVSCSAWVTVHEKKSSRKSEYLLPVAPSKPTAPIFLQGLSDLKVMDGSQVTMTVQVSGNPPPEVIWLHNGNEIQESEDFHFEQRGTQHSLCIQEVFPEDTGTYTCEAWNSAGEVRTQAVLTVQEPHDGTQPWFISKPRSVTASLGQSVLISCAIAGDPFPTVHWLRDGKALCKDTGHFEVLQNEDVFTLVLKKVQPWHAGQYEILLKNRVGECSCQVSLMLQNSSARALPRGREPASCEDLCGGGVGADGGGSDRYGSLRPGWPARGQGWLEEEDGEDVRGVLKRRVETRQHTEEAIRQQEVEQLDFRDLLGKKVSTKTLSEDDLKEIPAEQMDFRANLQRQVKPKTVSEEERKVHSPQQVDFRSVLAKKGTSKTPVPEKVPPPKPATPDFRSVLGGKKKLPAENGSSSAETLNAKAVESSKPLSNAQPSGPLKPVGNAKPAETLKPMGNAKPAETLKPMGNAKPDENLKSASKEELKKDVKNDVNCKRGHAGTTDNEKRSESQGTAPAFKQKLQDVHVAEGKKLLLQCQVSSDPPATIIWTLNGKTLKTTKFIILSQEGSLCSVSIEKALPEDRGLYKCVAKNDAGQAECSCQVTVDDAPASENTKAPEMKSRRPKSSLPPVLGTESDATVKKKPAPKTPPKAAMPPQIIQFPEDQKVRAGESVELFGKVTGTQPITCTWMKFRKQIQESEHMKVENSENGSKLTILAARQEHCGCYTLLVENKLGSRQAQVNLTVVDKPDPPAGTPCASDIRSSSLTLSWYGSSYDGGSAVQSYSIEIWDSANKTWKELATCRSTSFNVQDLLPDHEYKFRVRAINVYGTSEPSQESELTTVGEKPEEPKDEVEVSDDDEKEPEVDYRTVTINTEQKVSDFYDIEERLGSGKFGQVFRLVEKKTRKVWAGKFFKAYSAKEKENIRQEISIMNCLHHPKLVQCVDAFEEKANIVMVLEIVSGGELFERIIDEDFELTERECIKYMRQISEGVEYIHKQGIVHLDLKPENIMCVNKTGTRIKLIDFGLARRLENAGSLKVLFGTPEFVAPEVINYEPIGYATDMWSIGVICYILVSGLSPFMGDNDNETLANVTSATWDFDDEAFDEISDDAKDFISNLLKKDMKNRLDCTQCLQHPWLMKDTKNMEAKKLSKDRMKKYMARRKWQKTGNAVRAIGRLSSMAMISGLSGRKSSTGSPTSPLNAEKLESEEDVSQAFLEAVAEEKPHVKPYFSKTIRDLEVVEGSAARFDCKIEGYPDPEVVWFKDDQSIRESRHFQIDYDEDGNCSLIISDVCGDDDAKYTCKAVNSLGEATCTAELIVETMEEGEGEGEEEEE
Sequence of PTK6 (human) (Q13882 whole entry, looked up): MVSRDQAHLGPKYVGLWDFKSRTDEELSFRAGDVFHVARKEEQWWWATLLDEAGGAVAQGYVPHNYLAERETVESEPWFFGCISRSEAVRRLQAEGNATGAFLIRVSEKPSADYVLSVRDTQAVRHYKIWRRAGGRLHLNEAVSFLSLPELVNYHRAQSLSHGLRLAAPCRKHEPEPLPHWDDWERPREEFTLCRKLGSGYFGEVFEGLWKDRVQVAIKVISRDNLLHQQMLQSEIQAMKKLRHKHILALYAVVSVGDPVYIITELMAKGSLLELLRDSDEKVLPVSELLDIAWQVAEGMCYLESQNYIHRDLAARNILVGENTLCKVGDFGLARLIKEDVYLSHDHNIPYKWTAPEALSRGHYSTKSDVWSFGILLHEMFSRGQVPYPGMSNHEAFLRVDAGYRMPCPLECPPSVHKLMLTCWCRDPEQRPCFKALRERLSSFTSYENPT
Sequence of TAOK2 (human) (Q9UL54 whole entry, looked up): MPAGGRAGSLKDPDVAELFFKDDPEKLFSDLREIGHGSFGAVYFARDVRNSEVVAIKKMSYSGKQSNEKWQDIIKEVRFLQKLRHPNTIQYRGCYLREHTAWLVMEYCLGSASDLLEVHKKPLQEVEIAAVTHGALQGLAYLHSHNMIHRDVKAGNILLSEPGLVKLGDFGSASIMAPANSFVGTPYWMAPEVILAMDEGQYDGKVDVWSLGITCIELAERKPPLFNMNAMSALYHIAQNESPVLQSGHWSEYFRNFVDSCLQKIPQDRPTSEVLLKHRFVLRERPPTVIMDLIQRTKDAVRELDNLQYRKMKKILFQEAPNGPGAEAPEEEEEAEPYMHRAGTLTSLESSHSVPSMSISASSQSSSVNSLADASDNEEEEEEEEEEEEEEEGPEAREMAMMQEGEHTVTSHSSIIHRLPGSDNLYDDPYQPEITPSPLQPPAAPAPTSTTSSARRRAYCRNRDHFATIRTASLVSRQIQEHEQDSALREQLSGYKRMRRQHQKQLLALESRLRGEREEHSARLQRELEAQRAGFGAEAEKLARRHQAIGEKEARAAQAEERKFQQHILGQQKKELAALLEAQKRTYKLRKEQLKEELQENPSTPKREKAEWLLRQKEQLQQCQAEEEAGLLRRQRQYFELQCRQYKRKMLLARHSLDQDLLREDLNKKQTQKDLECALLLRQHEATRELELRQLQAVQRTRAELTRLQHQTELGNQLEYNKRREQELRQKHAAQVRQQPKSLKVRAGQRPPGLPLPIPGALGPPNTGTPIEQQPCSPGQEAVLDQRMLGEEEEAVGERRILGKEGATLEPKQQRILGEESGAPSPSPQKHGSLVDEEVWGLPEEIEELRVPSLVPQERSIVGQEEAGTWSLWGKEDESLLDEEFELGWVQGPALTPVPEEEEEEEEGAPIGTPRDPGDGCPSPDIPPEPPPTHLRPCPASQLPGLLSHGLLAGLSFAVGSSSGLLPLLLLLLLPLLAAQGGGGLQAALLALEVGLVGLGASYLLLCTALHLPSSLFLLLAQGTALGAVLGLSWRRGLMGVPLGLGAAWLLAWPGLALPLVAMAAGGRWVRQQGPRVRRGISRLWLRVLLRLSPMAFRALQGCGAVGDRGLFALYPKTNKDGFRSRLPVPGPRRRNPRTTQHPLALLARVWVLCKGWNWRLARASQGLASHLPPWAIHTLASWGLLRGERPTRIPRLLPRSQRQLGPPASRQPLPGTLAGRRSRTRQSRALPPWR
Sequence of NUAK2 (human) (Q9H093 whole entry, looked up): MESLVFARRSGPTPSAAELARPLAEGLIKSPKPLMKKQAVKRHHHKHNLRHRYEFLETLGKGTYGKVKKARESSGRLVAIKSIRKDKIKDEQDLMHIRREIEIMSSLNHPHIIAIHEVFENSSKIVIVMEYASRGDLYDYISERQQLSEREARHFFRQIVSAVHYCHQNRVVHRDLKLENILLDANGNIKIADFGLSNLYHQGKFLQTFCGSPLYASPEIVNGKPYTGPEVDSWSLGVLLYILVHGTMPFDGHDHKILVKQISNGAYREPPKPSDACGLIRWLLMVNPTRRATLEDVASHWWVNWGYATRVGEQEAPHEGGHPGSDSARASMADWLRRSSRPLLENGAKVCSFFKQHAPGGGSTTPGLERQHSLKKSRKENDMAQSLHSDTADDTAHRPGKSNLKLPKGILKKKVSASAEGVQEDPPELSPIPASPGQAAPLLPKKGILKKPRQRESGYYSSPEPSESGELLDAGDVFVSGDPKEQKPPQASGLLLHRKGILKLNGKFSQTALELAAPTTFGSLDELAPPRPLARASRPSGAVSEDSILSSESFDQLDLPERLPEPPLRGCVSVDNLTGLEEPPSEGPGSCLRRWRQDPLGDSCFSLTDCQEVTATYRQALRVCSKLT
Sequence of CHEK1 (human) (O14757 whole entry, looked up): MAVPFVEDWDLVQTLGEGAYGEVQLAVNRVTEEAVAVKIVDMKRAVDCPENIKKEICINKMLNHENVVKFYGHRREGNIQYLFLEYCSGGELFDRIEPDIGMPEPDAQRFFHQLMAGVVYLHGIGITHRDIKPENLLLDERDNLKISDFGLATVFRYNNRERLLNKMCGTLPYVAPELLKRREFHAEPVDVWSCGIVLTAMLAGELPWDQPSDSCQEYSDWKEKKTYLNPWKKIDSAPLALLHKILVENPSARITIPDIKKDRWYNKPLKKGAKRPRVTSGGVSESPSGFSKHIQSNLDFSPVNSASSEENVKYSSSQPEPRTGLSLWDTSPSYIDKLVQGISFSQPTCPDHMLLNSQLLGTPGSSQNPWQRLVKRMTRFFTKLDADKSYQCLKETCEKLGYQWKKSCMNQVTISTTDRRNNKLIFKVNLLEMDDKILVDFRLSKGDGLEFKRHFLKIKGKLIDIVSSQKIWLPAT
Sequence of MAP2K1 (human) (Q02750 whole entry, looked up): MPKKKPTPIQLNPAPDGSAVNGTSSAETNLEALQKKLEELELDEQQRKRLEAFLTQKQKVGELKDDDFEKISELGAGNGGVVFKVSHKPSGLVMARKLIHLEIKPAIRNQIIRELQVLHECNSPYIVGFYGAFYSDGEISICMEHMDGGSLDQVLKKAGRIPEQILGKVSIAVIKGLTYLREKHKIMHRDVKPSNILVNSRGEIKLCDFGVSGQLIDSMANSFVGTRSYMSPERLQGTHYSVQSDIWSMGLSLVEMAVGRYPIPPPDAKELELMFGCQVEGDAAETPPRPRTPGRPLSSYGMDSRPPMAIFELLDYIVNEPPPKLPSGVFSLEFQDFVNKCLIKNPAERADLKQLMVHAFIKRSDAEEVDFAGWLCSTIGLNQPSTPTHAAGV

Oc1ccc(Nc2nc(-c3ccc(Cl)cc3)cs2)cc1
residual activity (ADRBK1 (human)): 100%
residual activity (AKT1 (human)): 106%
residual activity (CDC42BPA (human)): 87.1%
residual activity (CDK2 CCNE1 (human)): 91.9%
residual activity (CDK3 CCNE1 (human)): 99%
residual activity (CDK7 CCNH MNAT1 (human)): 96.3%
residual activity (CHEK1 (human)): 99.4%
residual activity (CSNK1G2 (human)): 91.8%
residual activity (EPHA2 (human)): 105%
residual activity (EPHA4 (human)): 104%
residual activity (EPHA8 (human)): 93.4%
residual activity (FGFR1 (human)): 82.5%
residual activity (FYN (human)): 102%
residual activity (GSK3A (human)): 97.4%
residual activity (HIPK1 (human)): 100%
residual activity (HIPK2 (human)): 90.9%
residual activity (ITK (human)): 95.4%
residual activity (LTK (human)): 104%
residual activity (MAP2K1 (human)): 90.7%
residual activity (MAP4K4 (human)): 88.9%
residual activity (MST4 (human)): 105%
residual activity (MYLK (human)): 104%
residual activity (NUAK2 (human)): 137%
residual activity (PAK7 (human)): 105%
residual activity (PKN2 (human)): 93.8%
residual activity (PRKACA (human)): 105%
residual activity (PRKCD (human)): 86.9%
residual activity (PRKD1 (human)): 96.8%
residual activity (PRKD2 (human)): 102%
residual activity (PRKD3 (human)): 97.7%
residual activity (PTK6 (human)): 87.4%
residual activity (RIPK2 (human)): 96.4%
residual activity (RPS6KB1 (human)): 104%
residual activity (SGK3 (human)): 98%
residual activity (STK10 (human)): 96.6%
residual activity (STK11 (human)): 91.1%
residual activity (STK16 (human)): 106%
residual activity (STK17A (human)): 98.7%
residual activity (STK25 (human)): 113%
residual activity (TAOK2 (human)): 101%
residual activity (TAOK3 (human)): 101%
residual activity (YES1 (human)): 99.2%

O=C1NC(=O)/C(=C\c2ccc3nccnc3c2)S1
residual activity (ADRBK1 (human)): 93.3%
residual activity (AKT1 (human)): 98.3%
residual activity (CDC42BPA (human)): 93.1%
residual activity (CDK2 CCNE1 (human)): 91.8%
residual activity (CDK3 CCNE1 (human)): 91.7%
residual activity (CDK7 CCNH MNAT1 (human)): 85.2%
residual activity (CHEK1 (human)): 99.4%
residual activity (CSNK1G2 (human)): 83.4%
residual activity (EPHA2 (human)): 99.9%
residual activity (EPHA4 (human)): 96%
residual activity (EPHA8 (human)): 94.2%
residual activity (FGFR1 (human)): 88.5%
residual activity (FYN (human)): 95.3%
residual activity (GSK3A (human)): 88.8%
residual activity (HIPK1 (human)): 104%
residual activity (HIPK2 (human)): 101%
residual activity (ITK (human)): 91.2%
residual activity (LTK (human)): 94.7%
residual activity (MAP2K1 (human)): 89.5%
residual activity (MAP4K4 (human)): 80.9%
residual activity (MST4 (human)): 91%
residual activity (MYLK (human)): 97.1%
residual activity (NUAK2 (human)): 76%
residual activity (PAK7 (human)): 97.4%
residual activity (PKN2 (human)): 107%
residual activity (PRKACA (human)): 97.2%
residual activity (PRKCD (human)): 94.4%
residual activity (PRKD1 (human)): 94.8%
residual activity (PRKD2 (human)): 104%
residual activity (PRKD3 (human)): 94.7%
residual activity (PTK6 (human)): 95.1%
residual activity (RIPK2 (human)): 76.8%
residual activity (RPS6KB1 (human)): 91.2%
residual activity (SGK3 (human)): 94.3%
residual activity (STK10 (human)): 90.5%
residual activity (STK11 (human)): 96.6%
residual activity (STK16 (human)): 91.9%
residual activity (STK17A (human)): 94.6%
residual activity (STK25 (human)): 99.3%
residual activity (TAOK2 (human)): 89.9%
residual activity (TAOK3 (human)): 93.1%
residual activity (YES1 (human)): 89.3%

O=C1NC(=O)C(c2c[nH]c3ccccc23)=C1c1c[nH]c2ccccc12
residual activity (ADRBK1 (human)): 98.4%
residual activity (AKT1 (human)): 87.7%
residual activity (CDC42BPA (human)): 89.9%
residual activity (CDK2 CCNE1 (human)): 71.4%
residual activity (CDK3 CCNE1 (human)): 91.5%
residual activity (CDK7 CCNH MNAT1 (human)): 94.4%
residual activity (CHEK1 (human)): 93.1%
residual activity (CSNK1G2 (human)): 92%
residual activity (EPHA2 (human)): 91.6%
residual activity (EPHA4 (human)): 87.6%
residual activity (EPHA8 (human)): 103%
residual activity (FGFR1 (human)): 41.4%
residual activity (FYN (human)): 101%
residual activity (GSK3A (human)): 27.7%
residual activity (HIPK1 (human)): 102%
residual activity (HIPK2 (human)): 104%
residual activity (ITK (human)): 102%
residual activity (LTK (human)): 85.1%
residual activity (MAP2K1 (human)): 95.8%
residual activity (MAP4K4 (human)): 58.5%
residual activity (MST4 (human)): 59.2%
residual activity (MYLK (human)): 74.4%
residual activity (NUAK2 (human)): 86%
residual activity (PAK7 (human)): 104%
residual activity (PKN2 (human)): 103%
residual activity (PRKACA (human)): 101%
residual activity (PRKCD (human)): 55.5%
residual activity (PRKD1 (human)): 97.6%
residual activity (PRKD2 (human)): 87.4%
residual activity (PRKD3 (human)): 88.4%
residual activity (PTK6 (human)): 84.6%
residual activity (RIPK2 (human)): 97%
residual activity (RPS6KB1 (human)): 75.6%
residual activity (SGK3 (human)): 97.9%
residual activity (STK10 (human)): 49.6%
residual activity (STK11 (human)): 107%
residual activity (STK16 (human)): 94.2%
residual activity (STK17A (human)): 92.2%
residual activity (STK25 (human)): 78.3%
residual activity (TAOK2 (human)): 102%
residual activity (TAOK3 (human)): 85.2%
residual activity (YES1 (human)): 88.4%

Cn1cnc2cc3c(Nc4cccc(Br)c4)ncnc3cc21
residual activity (ADRBK1 (human)): 100%
residual activity (AKT1 (human)): 89.1%
residual activity (CDC42BPA (human)): 93.2%
residual activity (CDK2 CCNE1 (human)): 78.2%
residual activity (CDK3 CCNE1 (human)): 92.5%
residual activity (CDK7 CCNH MNAT1 (human)): 99.5%
residual activity (CHEK1 (human)): 113%
residual activity (CSNK1G2 (human)): 89.2%
residual activity (EPHA2 (human)): 81.8%
residual activity (EPHA4 (human)): 80.7%
residual activity (EPHA8 (human)): 85.4%
residual activity (FGFR1 (human)): 89.6%
residual activity (FYN (human)): 85.9%
residual activity (GSK3A (human)): 100%
residual activity (HIPK1 (human)): 108%
residual activity (HIPK2 (human)): 106%
residual activity (ITK (human)): 102%
residual activity (LTK (human)): 77.9%
residual activity (MAP2K1 (human)): 113%
residual activity (MAP4K4 (human)): 52.1%
residual activity (MST4 (human)): 94.3%
residual activity (MYLK (human)): 83.3%
residual activity (NUAK2 (human)): 102%
residual activity (PAK7 (human)): 86.1%
residual activity (PKN2 (human)): 85.7%
residual activity (PRKACA (human)): 105%
residual activity (PRKCD (human)): 91.8%
residual activity (PRKD1 (human)): 99.4%
residual activity (PRKD2 (human)): 82.6%
residual activity (PRKD3 (human)): 93.1%
residual activity (PTK6 (human)): 54%
residual activity (RIPK2 (human)): 35.6%
residual activity (RPS6KB1 (human)): 100%
residual activity (SGK3 (human)): 107%
residual activity (STK10 (human)): 35.8%
residual activity (STK11 (human)): 91.1%
residual activity (STK16 (human)): 96.3%
residual activity (STK17A (human)): 82.5%
residual activity (STK25 (human)): 99%
residual activity (TAOK2 (human)): 103%
residual activity (TAOK3 (human)): 97.6%
residual activity (YES1 (human)): 45.7%
